*1 amine or outer side, *2 acyl side, *3 side chain or, on linkers, in order; H or OH if unused. Where a SMILES comes first, the peptide text is derived from it. [ ]: non-standard residue; d: D form. The star is where a group is joined. DOTA = O=C(O)CN1CCN(CC(=O)O)CCN(CC(=O)*)CCN(CC(=O)O)CC1; Leuψ(CH2N)ThzNH2 = CC(C)C[C@@H](CN1CSC[C@H]1C(N)=O)N*; d2Nal = N[C@H](Cc1ccc2ccccc2c1)C(=O)O; Cya = N[C@@H](CS(=O)(=O)O)C(=O)O; X1 = O=C(CN1CCC(N[*:1])CC1)[*:2]
Columns and labels:
[1] = system: PC-3 tumor xenografts; assay: PET/CT imaging of mice bearing PC-3 tumor xenografts; type: in vivo; settings: 1 h post-injection
Description: The PET/CT imaging experiments were carried out using a Siemens (Knoxville, TN, USA) Inveon micro-PET/CT scanner. […] At 50 min post-injection, a 10 min CT scan was conducted: first for localization and attenuation corrections after segmentation for reconstructing the PET images, followed by a 10 min static PET imaging acquisition.

[2] = physchem; settings: 1-octanol/phosphate buffer, pH 7.4
Description: Briefly, aliquots (2 μL) of the ^68Ga-labeled peptides were added to a vial containing 3 mL of 1-octanol and 3 mL of 0.1 M phosphate buffer (pH 7.4). The mixture was vortexed for 1 min and then centrifuged at 5000 rpm for 10 min. Samples of the 1-octanol (1 mL) and buffer (1 mL) layers were taken and counted in a gamma counter. LogD7.4 was calculated using the following equation: LogD7.4 = log10[(counts in 1-octanol phase)/(counts in buffer phase)].

[3] = molecular target: T1, GRPR (Homo sapiens, UniProt P30550); assay: Fluorometric intracellular calcium release assay using PC-3 cells; type: cell-based; settings: 50 nM ligand
T1 construct: endogenous in cells; host or cells: PC-3 prostate cancer cells
Description: Following previously published procedures, 5 × 10^4 PC-3 cells were seeded in 96-well clear-bottom black plates 24 h prior to the assay. The growth medium was removed and replaced with a loading buffer containing a calcium-sensitive dye (FLIPR Calcium 6 assay kit, Molecular Device, San Jose, CA, USA). After incubation at 37 °C for 30 min, the plates were placed in a FlexStation 3 microplate reader (Molecular Devices). […] Agonistic/antagonistic properties were determined using the relative fluorescent unit (RFU = max–min).

[4] = for Fraction remaining intact in plasma: NRG mice, 15 min post-injection, n = 3; for Intact tracer in urine: mouse urine samples collected at 15 min post-injection
Description: Imaging, biodistribution, and in vivo stability studies were performed using male NOD.Cg-Rag1^tm1Mom Il2rg^tm1Wjl/SzJ (NRG) mice (from in-house breeding colonies) following previously published procedures. […] When the tumor grew to 5–8 mm in diameter over 3–4 weeks, the mice were used for PET/CT imaging and biodistribution studies.
At 15 min post-injection, the mice were sedated and euthanized, and urine and blood were collected. The plasma was extracted from whole blood by the addition of CH3CN (500 μL), vortexing, centrifugation, and the separation of the supernatants. The plasma and urine samples were analyzed via radio-HPLC by using the conditions for quality control of these ^68Ga-labeled radioligands (Table S3).

[5] = system: PC-3 tumor xenografts; assay: Ex vivo biodistribution in PC-3 tumor-bearing mice; settings: 1 h post-injection, n = 4
Description: For biodistribution studies, the mice (n = 4) were injected with the radiotracer (~2–4 MBq, 0.03–0.07 nmol) as described above. […] At 1 h post-injection, the mice were euthanized by CO2 inhalation. Blood was withdrawn by cardiac puncture, and organs/tissues of interest were collected, weighed and counted using a Perkin Elmer (Waltham, MA, USA) Wizard2 2480 automatic gamma counter.

T1 sequence (P30550 whole entry): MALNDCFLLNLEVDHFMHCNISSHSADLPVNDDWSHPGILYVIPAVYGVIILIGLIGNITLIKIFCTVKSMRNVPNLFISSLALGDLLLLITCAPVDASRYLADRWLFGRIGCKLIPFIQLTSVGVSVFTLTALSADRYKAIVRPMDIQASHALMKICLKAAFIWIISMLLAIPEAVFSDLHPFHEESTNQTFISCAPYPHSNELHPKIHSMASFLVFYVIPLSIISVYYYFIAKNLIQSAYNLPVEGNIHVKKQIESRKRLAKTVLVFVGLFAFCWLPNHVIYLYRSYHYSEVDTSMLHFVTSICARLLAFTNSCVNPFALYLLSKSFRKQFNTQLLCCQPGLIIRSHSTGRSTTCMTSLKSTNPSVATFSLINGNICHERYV

Row | Ca2+ efflux (relative fluorescence units, max-min) [3] [RFU] | Molecule | Excretion pathway in PET images [1] | logD [2] | other results
1 |  | CC(C)C[C@@H](CN1CSC[C@H]1C(N)=O)NC(=O)[C@H](Cc1c[nH]cn1)NC(=O)CNC(=O)[C@@H](NC(=O)[C@H](C)NC(=O)[C@H](Cc1c[nH]c2ccccc12)NC(=O)[C@H](CCC(N)=O)NC(=O)[C@@H](Cc1ccc2ccccc2c1)NC(=O)CN1CCC(NC(=O)CN2CCN(CC(=O)O)CCN(CC(=O)O)CCN(CC(=O)O)CC2)CC1)C(C)C [[^68Ga]Ga-TacsBOMB3, metal not drawn] | primarily excreted through the renal pathway | -1.75 ± 0.04 | 
2 | 754 ± 38.3 | bombesin |  |  | 
3 |  | CC(C)C[C@@H](CN1CSC[C@H]1C(N)=O)NC(=O)[C@H](Cc1c[nH]cn1)NC(=O)CNC(=O)[C@@H](NC(=O)[C@H](C)NC(=O)[C@H](Cc1c[nH]c2ccccc12)NC(=O)[C@H](CCC(N)=O)NC(=O)[C@@H](Cc1ccc2ccccc2c1)NC(=O)CN1CCC(NC(=O)[C@H](CS(=O)(=O)O)NC(=O)CN2CCN(CC(=O)O)CCN(CC(=O)O)CCN(CC(=O)O)CC2)CC1)C(C)C [[^68Ga]Ga-TacsBOMB6, metal not drawn] ({DOTA}-[Cya][X1][d2Nal]QWAVGH-{Leuψ(CH2N)ThzNH2}) | primarily excreted through the renal pathway | -2.55 ± 0.16 | 
4 |  | CC(C)C[C@H](NC(=O)C[C@H](O)[C@H](CC(C)C)NC(=O)[C@H](Cc1c[nH]cn1)NC(=O)CNC(=O)[C@@H](NC(=O)[C@H](C)NC(=O)[C@H](Cc1c[nH]c2ccccc12)NC(=O)[C@H](CCC(N)=O)NC(=O)[C@@H](Cc1ccccc1)NC(=O)CN1CCC(NC(=O)CN2CCN(CC(=O)O)CCN(CC(=O)O)CCN(CC(=O)O)CC2)CC1)C(C)C)C(N)=O [[^68Ga]Ga-RM2, metal not drawn, reference compound] | primarily excreted through the renal pathway | -2.76 ± 0.03 | Fraction remaining intact in plasma [4]: 71.9 ± 10.4%; Intact tracer in urine [4]: no intact; Spleen uptake [5]: 0.44 ± 0.26 %ID/g
5 | 334 ± 39.0 | Nc1ncnc2c1ncn2[C@@H]1O[C@H](COP(=O)(O)OP(=O)(O)OP(=O)(O)O)[C@@H](O)[C@H]1O [ATP, adenosine triphosphate] |  |  | 
6 |  | CC(C)C[C@@H](CN1CSC[C@H]1C(N)=O)NC(=O)[C@H](Cc1c[nH]cn1)NC(=O)CNC(=O)[C@@H](NC(=O)[C@H](C)NC(=O)[C@H](Cc1c[nH]c2ccccc12)NC(=O)[C@H](CCC(N)=O)NC(=O)[C@@H](Cc1ccccc1)NC(=O)CN1CCC(NC(=O)CN2CCN(CC(=O)O)CCN(CC(=O)O)CCN(CC(=O)O)CC2)CC1)C(C)C [[^68Ga]Ga-TacsBOMB2, metal not drawn] | primarily excreted through the renal pathway | -2.39 ± 0.13 | Fraction remaining intact in plasma [4]: 83.3 ± 1.45%; Intact tracer in urine [4]: no intact
7 | 25.3 ± 1.92 | [D-Phe^6,Leu-NHEt^13,des-Met^14]Bombesin(6–14) |  |  | 

Row | Molecule | Ca2+ efflux (relative fluorescence units, max-min) [3] [RFU] | Excretion pathway in PET images [1] | logD [2] | other results
8 | CC(C)C[C@@H](CN1CSC[C@H]1C(N)=O)NC(=O)[C@H](Cc1c[nH]cn1)NC(=O)CNC(=O)[C@@H](NC(=O)[C@H](C)NC(=O)[C@H](Cc1c[nH]c2ccccc12)NC(=O)[C@H](CCC(N)=O)NC(=O)[C@H]1Cc2c([nH]c3ccccc23)CN1C(=O)CN1CCC(NC(=O)CN2CCN(CC(=O)O)CCN(CC(=O)O)CCN(CC(=O)O)CC2)CC1)C(C)C [Ga-TacsBOMB4] | 9.30 ± 3.74 |  |  | 
9 | CC(C)C[C@@H](CN1CSC[C@H]1C(N)=O)NC(=O)[C@H](Cc1c[nH]cn1)NC(=O)CNC(=O)[C@@H](NC(=O)[C@H](C)NC(=O)[C@H](Cc1c[nH]c2ccccc12)NC(=O)[C@H](CCC(N)=O)NC(=O)[C@@H](Cc1ccc2ccccc2c1)NC(=O)CN1CCC(NC(=O)[C@H](CS(=O)(=O)O)NC(=O)CN2CCN(CC(=O)O)CCN(CC(=O)O)CCN(CC(=O)O)CC2)CC1)C(C)C [Ga-TacsBOMB6] ({DOTA}-[Cya][X1][d2Nal]QWAVGH-{Leuψ(CH2N)ThzNH2}) | 23.0 ± 0.06 |  |  | 

Source: publication PMC9230575, “^68Ga-Labeled [Leu^13ψThz^14]Bombesin(7–14) Derivatives: Promising GRPR-Targeting PET Tracers with Low Pancreas Uptake” (Molecules, 2022)
